Tests used:
RAR γ [1] = molecular target: T1, RAR γ (Homo sapiens, UniProt P13631); test: RAR γ Kd; assay type: binding; settings: last item of cell EC50/(EFFICACY)/Kd
T1 sequence (P13631 1-454): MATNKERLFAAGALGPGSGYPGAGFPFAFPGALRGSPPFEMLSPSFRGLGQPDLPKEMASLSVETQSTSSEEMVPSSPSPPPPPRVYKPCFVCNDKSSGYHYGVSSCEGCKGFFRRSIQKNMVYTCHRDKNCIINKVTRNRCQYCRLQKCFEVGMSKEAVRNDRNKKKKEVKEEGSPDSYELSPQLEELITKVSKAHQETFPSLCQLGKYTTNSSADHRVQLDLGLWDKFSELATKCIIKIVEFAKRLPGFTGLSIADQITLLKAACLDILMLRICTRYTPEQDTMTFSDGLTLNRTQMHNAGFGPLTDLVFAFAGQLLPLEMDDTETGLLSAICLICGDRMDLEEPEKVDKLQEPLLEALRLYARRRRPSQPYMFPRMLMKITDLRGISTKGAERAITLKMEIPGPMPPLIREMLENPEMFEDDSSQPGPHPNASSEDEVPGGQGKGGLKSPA

CYP26B (P450RAI-2) = molecular target: T2, CYP26B (P450RAI-2) (Homo sapiens, UniProt Q9NR63); test: Cell-based inhibition of RA metabolism in CYP26B stably transfected HeLa cells; settings: stably transfected HeLa cells, [3H]-RA, 3 hours at 37° C.; read-out: P450RAI-2 Whole cell IC50
T2 construct: expressed in transfected cells; host or cells: HeLa
T2 sequence (Q9NR63 1-512): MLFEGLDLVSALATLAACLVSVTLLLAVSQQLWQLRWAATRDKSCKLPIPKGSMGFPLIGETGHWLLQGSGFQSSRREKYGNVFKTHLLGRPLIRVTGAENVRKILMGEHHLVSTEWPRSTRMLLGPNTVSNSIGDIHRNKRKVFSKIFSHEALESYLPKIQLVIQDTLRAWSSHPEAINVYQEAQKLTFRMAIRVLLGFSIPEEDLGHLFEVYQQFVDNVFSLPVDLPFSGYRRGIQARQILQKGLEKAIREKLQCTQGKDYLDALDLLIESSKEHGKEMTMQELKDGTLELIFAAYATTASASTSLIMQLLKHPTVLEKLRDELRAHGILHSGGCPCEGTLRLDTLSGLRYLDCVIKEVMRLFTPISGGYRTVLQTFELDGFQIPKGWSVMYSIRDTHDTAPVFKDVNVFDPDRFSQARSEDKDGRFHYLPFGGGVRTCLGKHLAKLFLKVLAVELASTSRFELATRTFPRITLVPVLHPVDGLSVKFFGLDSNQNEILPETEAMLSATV
How it was run: (§1)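 Stably transfected HeLa cells (5×10^5/well) in MEM with 10% FBS and 0.05 μCi [3H]-RA, compounds at 10, 1 or 0.1 μM final, 3 h at 37° C. Retinoids extracted by modified Bligh-Dyer (methylene chloride); aqueous radioactivity counted; ID50 for 50% inhibition of RA metabolism derived from log-transformed data.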

RAR α [2] = molecular target: T3, RAR α (Homo sapiens, UniProt P10276); test: RAR α EC50/(efficacy); assay type: cell-based; settings: for EC50: first item of cell EC50/(EFFICACY)/Kd; for RAR α (EFFICACY): value in brackets of cell EC50/(EFFICACY)/Kd
T3 sequence (P10276 1-462): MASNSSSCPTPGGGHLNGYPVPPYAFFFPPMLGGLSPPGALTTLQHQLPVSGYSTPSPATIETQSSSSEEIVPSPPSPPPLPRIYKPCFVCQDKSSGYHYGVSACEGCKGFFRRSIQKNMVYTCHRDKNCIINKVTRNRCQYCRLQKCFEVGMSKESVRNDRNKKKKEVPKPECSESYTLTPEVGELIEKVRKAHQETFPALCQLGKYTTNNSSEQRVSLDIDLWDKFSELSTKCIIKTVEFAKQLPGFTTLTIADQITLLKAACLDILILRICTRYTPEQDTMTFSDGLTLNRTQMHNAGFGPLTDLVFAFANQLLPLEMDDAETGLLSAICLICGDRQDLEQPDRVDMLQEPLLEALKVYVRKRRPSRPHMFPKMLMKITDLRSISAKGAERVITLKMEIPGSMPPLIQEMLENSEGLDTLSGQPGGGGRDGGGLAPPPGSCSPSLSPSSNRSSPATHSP

RAR α [3] = molecular target: T3, RAR α; test: RAR α Kd; assay type: binding; settings: last item of cell EC50/(EFFICACY)/Kd
RAR γ [4] = molecular target: T1, RAR γ; test: RAR γ EC50/(efficacy); assay type: cell-based; settings: for EC50: first item of cell EC50/(EFFICACY)/Kd; for RAR γ (EFFICACY): value in brackets of cell EC50/(EFFICACY)/Kd
RAR β [5] = molecular target: T4, RAR β (Homo sapiens, UniProt P10826); test: RAR β EC50/(efficacy); assay type: cell-based; settings: for EC50: first item of cell EC50/(EFFICACY)/Kd; for RAR β (EFFICACY): value in brackets of cell EC50/(EFFICACY)/Kd
T4 sequence (P10826 1-455): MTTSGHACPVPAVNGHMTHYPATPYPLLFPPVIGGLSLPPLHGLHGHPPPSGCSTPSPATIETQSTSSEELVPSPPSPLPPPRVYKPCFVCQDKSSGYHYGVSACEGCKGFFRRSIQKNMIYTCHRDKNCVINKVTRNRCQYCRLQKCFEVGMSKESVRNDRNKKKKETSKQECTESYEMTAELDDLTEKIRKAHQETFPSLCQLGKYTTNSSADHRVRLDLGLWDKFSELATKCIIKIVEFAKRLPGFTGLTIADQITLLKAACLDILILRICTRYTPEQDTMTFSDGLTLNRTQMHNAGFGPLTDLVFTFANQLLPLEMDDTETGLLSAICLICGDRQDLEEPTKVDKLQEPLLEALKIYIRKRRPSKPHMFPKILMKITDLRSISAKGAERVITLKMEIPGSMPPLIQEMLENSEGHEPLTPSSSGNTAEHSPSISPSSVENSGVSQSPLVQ

CYP26A (P450RAI-1) = molecular target: T5, CYP26A (P450RAI-1) (Homo sapiens, UniProt O43174); test: Cell-based inhibition of RA metabolism in CYP26A stably transfected HeLa cells; settings: stably transfected HeLa cells, [3H]-RA, 3 hours at 37° C.; read-out: P450RAI-1 Whole cell IC50
T5 construct: expressed in transfected cells; host or cells: HeLa
T5 sequence (O43174 1-497): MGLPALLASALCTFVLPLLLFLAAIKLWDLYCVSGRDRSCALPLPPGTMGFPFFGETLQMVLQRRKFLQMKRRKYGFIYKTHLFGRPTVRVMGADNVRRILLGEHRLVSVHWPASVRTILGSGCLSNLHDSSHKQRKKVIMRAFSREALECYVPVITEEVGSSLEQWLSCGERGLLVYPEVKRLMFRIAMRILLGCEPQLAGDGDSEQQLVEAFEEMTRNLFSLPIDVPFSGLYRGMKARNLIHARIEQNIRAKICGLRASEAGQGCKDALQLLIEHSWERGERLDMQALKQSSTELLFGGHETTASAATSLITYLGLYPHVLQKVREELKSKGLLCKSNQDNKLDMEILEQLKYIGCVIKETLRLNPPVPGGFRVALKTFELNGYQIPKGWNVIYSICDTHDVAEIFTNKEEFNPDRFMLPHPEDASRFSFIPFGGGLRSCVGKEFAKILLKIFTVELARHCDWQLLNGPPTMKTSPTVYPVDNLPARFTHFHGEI
How it was run: as §1

RAR β [6] = molecular target: T4, RAR β; test: RAR β Kd; assay type: binding; settings: last item of cell EC50/(EFFICACY)/Kd

| SMILES | Kd (RAR γ [1]) [nM] | IC50 (CYP26B (P450RAI-2)) [µM] | EC50 (RAR α [2]) [nM] | RAR α (EFFICACY) (RAR α [2]) | Kd (RAR α [3]) [µM] | EC50 (RAR γ [4]) [nM] | RAR γ (EFFICACY) (RAR γ [4]) | EC50 (RAR β [5]) [nM] | RAR β (EFFICACY) (RAR β [5]) | IC50 (CYP26A (P450RAI-1)) [nM] | Kd (RAR β [6]) [µM] |
| --- | --- | --- | --- | --- | --- | --- | --- | --- | --- | --- | --- |
| C=Cc1c(C)c(C#Cc2ccc(CC(=O)O)cc2)cc(C(C)(C)C)c1OC(C)C [Compound 46, [4-(5-tert-Butyl-4-isopropoxy-2-methyl-3-vinyl-phenylethynyl)-phenyl]-acetic acid] | 215 | > 10 | 65 | 67 | 0.085 | 7 | 65 | 10 | 75 | 700 | 0.045 |
| C#Cc1c(C)c(C#Cc2ccc(CC(=O)O)cc2)cc(C(C)(C)C)c1OC(C)C [Compound 45, [4-(5-tert-Butyl-3-ethynyl-4-isopropoxy-2-methyl-phenylethynyl)-phenyl]-acetic acid] | 255 | > 10 | 118 | 52 | 0.0099 | 31 | 68 | 18 | 55 | 700 | 0.076 |
| Cc1ccc(C(C)(C)C)cc1C#Cc1ccc(/C=C/C(=O)O)cc1 [Compound 36, 3-[4-(5-tert-Butyl-2-methyl-phenylethynyl)-phenyl]-acrylic acid] | 2080 | 0.4 |  |  | > 10 |  | 15 |  | 40 | > 10000 | 3.52 |
| CC(C)OC(=O)c1ccc(C#Cc2ccc(CC(=O)O)cc2)cc1CN(C)C1CC1 [Compound 38, 4-(4-Carboxymethyl-phenylethynyl)-2-[(cyclopropyl-methyl-amino)-methyl]-benzoic acid isopropyl ester] | > 10000 | > 10 |  | 10 | > 10 |  |  |  |  | 4000 | > 10 |
| CC(C)c1cc(C(=O)Oc2ccc(/C=C/C(=O)O)cc2)cc2c1OC(C)(C)CC2(C)C [Compound 16, 8-Isopropyl-2,2,4,4-tetramethyl-chroman-6-carboxylic acid 4-(2-carboxy-vinyl)-phenyl ester] | > 10000 | > 10 |  | ~5 | 3.08 |  | ~5 |  | 35 | 300 | 0.81 |
| CCOC(=O)C1=CCC(C)(C)c2cc(C#Cc3ccc(CC(=O)O)c(F)c3)ccc21 [Compound 60, 6-(4-Carboxymethyl-3-fluoro-phenylethynyl)-4,4-dimethyl-3,4-dihydro-naphthalene-1-carboxylic acid ethyl ester] | 8990 | 2.6 |  |  | 6.32 |  | 15 |  | 60 | 60 | 3.96 |
| CCC1(CC)CC(C)(C)c2cc(C#Cc3ccc(C(C)(C)C(=O)O)cc3)cc(C(C)C)c2O1 [Compound 14, 2-[4-(2,2-Diethyl-8-isopropyl-4,4-dimethyl-chroman-6-ylethynyl)-phenyl]-2-methyl-propionic acid] | > 10000 | > 10 |  |  | 5.17 |  | 25 |  | 10 | 700 | 7.4 |
| C#CCc1c(C)c(C#Cc2ccc(CC(=O)O)cc2)cc(C(C)(C)C)c1OC(C)C [Compound 47, [4-(5-tert-Butyl-4-isopropoxy-2-methyl-3-prop-2-ynyl-phenylethynyl)-phenyl]-acetic acid] | 1950 | 8.8 |  | 10 | 2.24 | 125 | 66 | 38 | 59 | 100 | 4.47 |
| CC1(C)CC2(CC2)Oc2c(C3CC3)cc(NC(=O)Nc3ccc(C(=O)O)cc3)cc21 [Compound 5, 4-{3-[8-Cyclopropyl-3,3-dihydro-4,4-dimethylspiro(2H-1-benzopyran-2,2′-cyclopropane)-6-yl]-ureido}-benzoic acid] | > 10000 | 0.45 |  |  | > 10 |  | 15 | 320 | 55 | > 10000 | 4.54 |
| CC(C)(C)c1cccc(C#Cc2ccc(/C=C/C(=O)O)cc2)c1 [Compound 35, (E)-3-[4-(3-tert-Butyl-phenylethynyl)-phenyl]-acrylic acid] | 2890 | 0.5 |  |  | 1.93 | 126 | 48 | 16 | 80 | > 10000 | 2.09 |
| C/C(=C\c1ccc(C#Cc2cc(C3CC3)c3c(c2)C(C)(C)CC2(CC2)O3)cc1)C(=O)O [Compound 3] | 6040 | > 10 |  |  | > 10 |  | 10 |  | 15 | 250 | 0.52 |
| CC1(C)CC2(CC2)Oc2c(C3CC3)cc(C#Cc3ccc(/C=C(\Cl)C(=O)O)cc3)cc21 [Compound 4] | > 10000 | > 10 |  |  | > 10 |  | 15 |  | 20 | 120 | > 10 |

Source: US7468391B2, “Methods for treating retinoid responsive disorders using selective inhibitors of CYP26A and CYP26B” (Allergan, Inc., priority 2003, dated 2008)
